Tests used:
Experiment in all cases: relative viability (nuclei count vs DMSO), 5 days (fraction); higher = more cells survive
FH535 + Trametinib = compound: CC1=C(C=CC(=C1)[N+](=O)[O-])NS(=O)(=O)C2=C(C=CC(=C2)Cl)Cl [FH535] + CC(=O)Nc1cccc(-n2c(=O)n(C3CC3)c(=O)c3c(Nc4ccc(I)cc4F)n(C)c(=O)c(C)c32)c1 [Trametinib] (partner 0.02 µM)
Method in brief: (§1)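 Cells from lung cancer lines were seeded into 1536-well plates and, one day later, dosed by pin tool. Treatments were either a single drug or a fixed dose of an anchor drug with five library-drug doses (not always all listed) in √10 steps. After 5 days, nuclei were stained in a one-step fixation (final 0.05% Triton X-100, 1% formaldehyde, 1 ug/ml Hoechst) and counted on 4× images, and relative viability is the treated-to-vehicle nuclei ratio, as the median of duplicate plates.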

FH535 + Palbociclib = compound: CC1=C(C=CC(=C1)[N+](=O)[O-])NS(=O)(=O)C2=C(C=CC(=C2)Cl)Cl [FH535] + CC(=O)c1c(C)c2cnc(Nc3ccc(N4CCNCC4)cn3)nc2n(C2CCCC2)c1=O [Palbociclib] (partner 0.5 µM)
Method in brief: as §1

FH535 + Luminespib = compound: CC1=C(C=CC(=C1)[N+](=O)[O-])NS(=O)(=O)C2=C(C=CC(=C2)Cl)Cl [FH535] + CCNC(=O)c1noc(-c2cc(C(C)C)c(O)cc2O)c1-c1ccc(CN2CCOCC2)cc1 [Luminespib] (partner 0.01 µM)
Method in brief: as §1

FH535 + Lapatinib = compound: CC1=C(C=CC(=C1)[N+](=O)[O-])NS(=O)(=O)C2=C(C=CC(=C2)Cl)Cl [FH535] + CS(=O)(=O)CCNCc1ccc(-c2ccc3ncnc(Nc4ccc(OCc5cccc(F)c5)c(Cl)c4)c3c2)o1 [Lapatinib] (partner 2 µM)
Method in brief: as §1

FH535 + Pictilisib = compound: CC1=C(C=CC(=C1)[N+](=O)[O-])NS(=O)(=O)C2=C(C=CC(=C2)Cl)Cl [FH535] + CS(=O)(=O)N1CCN(Cc2cc3nc(-c4cccc5[nH]ncc45)nc(N4CCOCC4)c3s2)CC1 [Pictilisib] (partner 1 µM)
Method in brief: as §1

Cell Line	relative viability (FH535 + Trametinib; first compound 0.04 µM)	relative viability (FH535 + Trametinib; first compound 0.1265 µM)	relative viability (FH535 + Trametinib; first compound 0.4 µM)	relative viability (FH535 + Trametinib; first compound 1.265 µM)	relative viability (FH535 + Palbociclib; first compound 0.04 µM)	relative viability (FH535 + Palbociclib; first compound 0.1265 µM)	relative viability (FH535 + Palbociclib; first compound 0.4 µM)	relative viability (FH535 + Palbociclib; first compound 1.265 µM)	relative viability (FH535 + Luminespib; first compound 0.04 µM)	relative viability (FH535 + Luminespib; first compound 0.1265 µM)	relative viability (FH535 + Luminespib; first compound 0.4 µM)	relative viability (FH535 + Luminespib; first compound 1.265 µM)	relative viability (FH535 + Lapatinib; first compound 0.04 µM)	relative viability (FH535 + Lapatinib; first compound 0.1265 µM)	relative viability (FH535 + Lapatinib; first compound 0.4 µM)	relative viability (FH535 + Lapatinib; first compound 1.265 µM)	relative viability (FH535 + Pictilisib; first compound 0.04 µM)	relative viability (FH535 + Pictilisib; first compound 0.1265 µM)	relative viability (FH535 + Pictilisib; first compound 0.4 µM)	relative viability (FH535 + Pictilisib; first compound 1.265 µM)
201T	0.718	0.72	0.69	0.562	0.374	0.344	0.332	0.301	1.04	1.03	1.03	0.735	1.01	0.897	0.971	0.978	0.662	0.726	0.632	0.627
A549	–	–	–	–	–	–	–	–	–	–	–	–	0.979	0.947	0.864	0.578	0.553	0.511	0.494	0.398
A-427	0.712	0.752	0.675	0.61	0.532	0.575	0.546	0.474	0.778	1.19	0.885	0.703	0.995	1.03	0.962	0.99	0.642	0.83	0.551	0.685
ABC-1	–	–	–	–	0.715	0.641	0.458	0.583	0.543	0.861	0.627	0.337	1.21	1.08	1.36	0.983	0.601	0.878	0.702	0.735
BEN	0.931	0.99	0.948	0.666	0.477	0.455	0.489	0.431	0.211	0.466	0.285	0.119	0.678	0.674	0.604	0.398	0.548	0.617	0.459	0.41
CAL-12T	0.336	0.438	0.367	0.347	0.344	0.442	0.393	0.25	0.331	0.496	0.727	0.536	0.612	0.633	0.726	0.476	0.392	0.362	0.29	0.334
COR-L23	0.52	0.604	0.515	0.371	0.3	0.327	0.263	0.256	0.73	0.612	0.5	0.435	0.953	0.958	0.901	0.549	0.734	0.816	0.624	0.531
COR-L 105	0.483	0.404	0.422	0.444	0.335	0.386	0.43	0.359	0.499	0.952	0.738	0.671	0.274	0.345	0.372	0.398	0.27	0.385	0.384	0.394
ChaGo-K-1	0.871	0.896	0.742	0.503	0.893	0.946	0.888	0.531	0.653	0.665	0.55	0.576	–	–	–	–	0.55	1.07	0.658	0.436
EKVX	0.319	0.391	0.292	0.293	0.422	0.396	0.333	0.292	0.876	0.935	0.859	0.764	0.179	0.221	0.227	0.187	0.411	0.401	0.411	0.425
EMC-BAC-2	0.804	0.9	0.869	0.892	0.546	0.507	0.526	0.512	1.21	1.23	1.12	1.04	0.788	0.926	0.894	0.813	0.506	0.507	0.544	0.526
EPLC-272H	0.272	0.296	0.299	0.262	0.363	0.336	0.337	0.299	0.277	0.357	0.505	0.197	0.677	1.1	0.827	0.831	0.263	0.349	0.299	0.249
H3255	0.563	0.604	0.582	0.55	0.302	0.307	0.346	0.307	0.849	0.892	0.911	0.44	0.214	0.252	0.266	0.199	0.352	0.466	0.445	0.413
HARA	0.759	0.711	0.643	0.461	0.233	0.278	0.277	0.241	0.52	0.869	0.726	0.446	0.743	0.802	0.8	0.73	0.429	0.665	0.368	0.458
HCC-15	0.288	0.358	0.406	0.316	0.651	0.781	0.639	0.523	0.287	0.302	0.255	0.302	0.825	0.679	0.733	0.534	0.672	0.668	0.674	0.594
HCC-44	1.06	0.986	1.03	0.967	1.02	0.889	0.914	0.79	1.09	1.16	1.02	0.575	1.06	1.03	0.977	0.773	0.67	0.556	0.564	0.538
